Experimental data reported in publication PMC5218480 (PLoS ONE, 2017).

Test system: MV-4-11 cells
Experiment: Gene expression microarray analysis (Affymetrix PrimeView) and GSEA
Format: cell-based, human
Set-up: RFU PODN (11730768_x_at) / Fold change /veh PODN (11730768_x_at) / RFU LINC00158 (11744669_a_at) / Fold change /veh LINC00158 (11744669_a_at) / RFU DUSP10 (11751237_a_at) / Fold change /veh DUSP10 (11751237_a_at) / RFU ID3 (11757404_x_at) / Fold change /veh ID3 (11757404_x_at) / RFU PLEKHG5 (11737974_s_at) / Fold change /veh PLEKHG5 (11737974_s_at) / RFU LRRC4B (11730491_at) / Fold change /veh LRRC4B (11730491_at) / RFU GIMAP4 (11747438_a_at) / Fold change /veh GIMAP4 (11747438_a_at) / RFU KRT8 (11758183_x_at) / Fold change /veh KRT8 (11758183_x_at) / RFU CNN1 (11734310_a_at) / Fold change /veh CNN1 (11734310_a_at) / RFU VPS37D (11726825_at) / Fold change /veh VPS37D (11726825_at) / RFU C10orf10 (11716522_x_at) / Fold change /veh C10orf10 (11716522_x_at) / RFU KIR2DL2 /// KIR2DL4 /// KIR2DL5A /// KIR2DL5B /// KIR2DS1 /// KIR2DS2 /// KIR2DS3 /// KIR2DS4 /// KIR3DL3 /// KIR3DL3 /// KIR3DS1 (11738374_at) / Fold change /veh KIR2DL2 /// KIR2DL4 /// KIR2DL5A /// KIR2DL5B /// KIR2DS1 /// KIR2DS2 /// KIR2DS3 /// KIR2DS4 /// KIR3DL3 /// KIR3DL3 /// KIR3DS1 (11738374_at) / RFU C1QL1 (11718748_at) / Fold change /veh C1QL1 (11718748_at) / RFU TMPRSS4 (11747572_a_at) / Fold change /veh TMPRSS4 (11747572_a_at) / RFU HAMP (11756126_x_at) / Fold change /veh HAMP (11756126_x_at) / RFU RNFT2 (11725882_a_at) / Fold change /veh RNFT2 (11725882_a_at) / RFU NR4A2 (11747474_a_at) / Fold change /veh NR4A2 (11747474_a_at) / RFU ABCC12 (11746883_a_at) / Fold change /veh ABCC12 (11746883_a_at) / RFU TMEM136 (11760407_x_at) / Fold change /veh TMEM136 (11760407_x_at) / RFU CLDN22 /// WWC2 (11732394_at) / Fold change /veh CLDN22 /// WWC2 (11732394_at) / RFU HLA-DPB1 (11760878_x_at) / Fold change /veh HLA-DPB1 (11760878_x_at) / RFU SPINT1 (11716480_a_at) / Fold change /veh SPINT1 (11716480_a_at) / RFU GAP43 (11754022_s_at) / Fold change /veh GAP43 (11754022_s_at) / RFU A4GNT (11735810_at) / Fold change /veh A4GNT (11735810_at) / RFU PRB3 (11715151_x_at) / Fold change /veh PRB3 (11715151_x_at) / RFU TUBB4B (11761932_at) / Fold change /veh TUBB4B (11761932_at) / RFU CAPN14 (11732068_a_at) / Fold change /veh CAPN14 (11732068_a_at) / RFU TMCC2 (11721928_a_at) / Fold change /veh TMCC2 (11721928_a_at) / RFU IRGQ (11745062_a_at) / Fold change /veh IRGQ (11745062_a_at) / RFU FAM174B (11720279_a_at) / Fold change /veh FAM174B (11720279_a_at) / RFU TMPRSS4 (11748680_a_at) / Fold change /veh TMPRSS4 (11748680_a_at) / RFU FAM212B (11763350_a_at) / Fold change /veh FAM212B (11763350_a_at) / RFU PLEKHG5 (11743358_a_at) / Fold change /veh PLEKHG5 (11743358_a_at) / RFU ZSCAN30 (11745921_a_at) / Fold change /veh ZSCAN30 (11745921_a_at) / RFU CMKLR1 (11741424_a_at) / Fold change /veh CMKLR1 (11741424_a_at) / RFU LOC101060620 /// MAPK8IP1 (11723275_at) / Fold change /veh LOC101060620 /// MAPK8IP1 (11723275_at) / RFU SPTSSB (11747773_x_at) / Fold change /veh SPTSSB (11747773_x_at) / RFU PRSS12 (11739890_at) / Fold change /veh PRSS12 (11739890_at) / RFU BIN1 (11741810_x_at) / Fold change /veh BIN1 (11741810_x_at) / RFU WNT11 (11732464_a_at) / Fold change /veh WNT11 (11732464_a_at) / RFU C10orf10 (11716521_a_at) / Fold change /veh C10orf10 (11716521_a_at) / RFU C5orf56 (11738089_at) / Fold change /veh C5orf56 (11738089_at) / RFU CYB561 (11721691_x_at) / Fold change /veh CYB561 (11721691_x_at) / RFU ANKRD19P (11752326_a_at) / Fold change /veh ANKRD19P (11752326_a_at) / RFU OR2T12 /// OR2T33 /// OR2T8 (11738714_s_at) / Fold change /veh OR2T12 /// OR2T33 /// OR2T8 (11738714_s_at) / RFU VCAN (11748164_a_at) / Fold change /veh VCAN (11748164_a_at) / RFU JSRP1 (11732532_at) / Fold change /veh JSRP1 (11732532_at) / RFU KRTAP10-11 (11738290_x_at) / Fold change /veh KRTAP10-11 (11738290_x_at) / RFU MYO3A (11730013_a_at) / Fold change /veh MYO3A (11730013_a_at) / RFU EBF3 (11725865_a_at) / Fold change /veh EBF3 (11725865_a_at) / RFU CAMK2N1 (11719241_x_at) / Fold change /veh CAMK2N1 (11719241_x_at) / RFU C5orf56 (11738088_a_at) / Fold change /veh C5orf56 (11738088_a_at) / RFU OLFML3 (11715873_a_at) / Fold change /veh OLFML3 (11715873_a_at) / RFU LOC100653217 /// NTM (11731650_a_at) / Fold change /veh LOC100653217 /// NTM (11731650_a_at) / RFU MAPK11 (11762145_a_at) / Fold change /veh MAPK11 (11762145_a_at) / RFU FIZ1 (11724087_x_at) / Fold change /veh FIZ1 (11724087_x_at) / RFU OASL (11726364_x_at) / Fold change /veh OASL (11726364_x_at) / RFU SOX15 (11748057_x_at) / Fold change /veh SOX15 (11748057_x_at) / RFU CD79A (11719716_a_at) / Fold change /veh CD79A (11719716_a_at) / RFU HIST1H1D (11736915_at) / Fold change /veh HIST1H1D (11736915_at) / RFU CASKIN2 (11723855_a_at) / Fold change /veh CASKIN2 (11723855_a_at) / RFU LOC730098 (11760151_x_at) / Fold change /veh LOC730098 (11760151_x_at) / RFU OR4N2 (11742367_at) / Fold change /veh OR4N2 (11742367_at) / RFU PRRT2 (11749266_a_at) / Fold change /veh PRRT2 (11749266_a_at) / RFU SNX32 (11753110_a_at) / Fold change /veh SNX32 (11753110_a_at) / RFU CDHR5 (11726645_a_at) / Fold change /veh CDHR5 (11726645_a_at) / RFU RCAN1 (11760418_a_at) / Fold change /veh RCAN1 (11760418_a_at) / RFU FAM167A (11723789_a_at) / Fold change /veh FAM167A (11723789_a_at) / RFU FAM26E (11764081_at) / Fold change /veh FAM26E (11764081_at) / RFU ISYNA1 (11749810_s_at) / Fold change /veh ISYNA1 (11749810_s_at) / RFU ACY1 (11761880_at) / Fold change /veh ACY1 (11761880_at) / RFU 11764098_at / Fold change /veh 11764098_at / RFU SAMD14 (11745864_x_at) / Fold change /veh SAMD14 (11745864_x_at) / RFU NPB (11741838_a_at) / Fold change /veh NPB (11741838_a_at) / RFU TMPRSS6 (11731388_a_at) / Fold change /veh TMPRSS6 (11731388_a_at) / RFU KRTAP10-2 (11738614_at) / Fold change /veh KRTAP10-2 (11738614_at) / RFU ARHGAP8 /// PRR5-ARHGAP8 (11727945_x_at) / Fold change /veh ARHGAP8 /// PRR5-ARHGAP8 (11727945_x_at) / RFU KRTAP5-7 /// NADSYN1 (11734609_at) / Fold change /veh KRTAP5-7 /// NADSYN1 (11734609_at) / RFU RASL12 (11751679_a_at) / Fold change /veh RASL12 (11751679_a_at) / RFU CDKN2B (11736163_a_at) / Fold change /veh CDKN2B (11736163_a_at) / RFU PRF1 (11729649_at) / Fold change /veh PRF1 (11729649_at) / RFU, ZNF638 /// ZNF638-IT1 / Fold change vs veh, ZNF638 /// ZNF638-IT1 / RFU, PANK3 / Fold change vs veh, PANK3 / RFU, SH3YL1 / Fold change vs veh, SH3YL1 / RFU, ZEB2 / Fold change vs veh, ZEB2 / RFU, NRIP1 / Fold change vs veh, NRIP1 / RFU, PTTG1IP / Fold change vs veh, PTTG1IP / RFU, CAPN2 / Fold change vs veh, CAPN2 / RFU, MED14 / Fold change vs veh, MED14 / RFU, SNORA58 / Fold change vs veh, SNORA58 / RFU, C1orf63 / Fold change vs veh, C1orf63 / RFU, LRRFIP1 / Fold change vs veh, LRRFIP1 / RFU, NDUFAF7 / Fold change vs veh, NDUFAF7 / RFU, SLC12A2 / Fold change vs veh, SLC12A2 / RFU, IBTK / Fold change vs veh, IBTK / RFU, ESF1 / Fold change vs veh, ESF1 / Fold change vs veh, TMEM50B / RFU, TAOK1 / Fold change vs veh, TAOK1 / RFU, ACBD3 / Fold change vs veh, ACBD3 / RFU, TMA16 / Fold change vs veh, TMA16 / RFU, RWDD3 / Fold change vs veh, RWDD3 / RFU, BCAT1 / Fold change vs veh, BCAT1 / RFU, EDEM3 / Fold change vs veh, EDEM3 / RFU, TMEM33 / Fold change vs veh, TMEM33 / RFU, WDR75 / Fold change vs veh, WDR75 / RFU, AHCTF1 / Fold change vs veh, AHCTF1 / RFU, TFRC / Fold change vs veh, TFRC / RFU, ZDHHC17 / Fold change vs veh, ZDHHC17 / RFU, NOM1 / Fold change vs veh, NOM1 / RFU, ARL8B / Fold change vs veh, ARL8B / RFU, ZBTB11 / Fold change vs veh, ZBTB11 / RFU, TAMM41 / Fold change vs veh, TAMM41 / RFU, KIAA1704 /// LOC100996395 / Fold change vs veh, KIAA1704 /// LOC100996395 / RFU, ING1 / Fold change vs veh, ING1 / RFU, TRMT61B / Fold change vs veh, TRMT61B / RFU, FUBP3 / Fold change vs veh, FUBP3 / RFU, TP53 / Fold change vs veh, TP53 / RFU, TNKS2 / Fold change vs veh, TNKS2 / RFU, ZFP14 / Fold change vs veh, ZFP14 / RFU, ACTR2 / Fold change vs veh, ACTR2 / RFU, PPP3R1 / Fold change vs veh, PPP3R1 / RFU, PIK3R1 / Fold change vs veh, PIK3R1 / RFU, HNRNPA1 / Fold change vs veh, HNRNPA1 / RFU, RNF170 / Fold change vs veh, RNF170 / RFU, ZNF28 / Fold change vs veh, ZNF28 / RFU, RNGTT / Fold change vs veh, RNGTT / RFU, OGT / Fold change vs veh, OGT / RFU, BRD1 / Fold change vs veh, BRD1 / RFU, MARS / Fold change vs veh, MARS / RFU, ZNF655 / Fold change vs veh, ZNF655 / RFU, FAHD1 / Fold change vs veh, FAHD1 / RFU, BDP1 / Fold change vs veh, BDP1 / RFU, LRRCC1 / Fold change vs veh, LRRCC1 / RFU, ARID1A / Fold change vs veh, ARID1A / RFU, ZNF146 / Fold change vs veh, ZNF146 / RFU, ZNF330 / Fold change vs veh, ZNF330 / RFU, GPN3 / Fold change vs veh, GPN3 / RFU, C9orf123 / Fold change vs veh, C9orf123 / RFU, N4BP2L2 / Fold change vs veh, N4BP2L2 / RFU, ARFIP1 / Fold change vs veh, ARFIP1 / RFU, FAM179B / Fold change vs veh, FAM179B / RFU, BCL10 / Fold change vs veh, BCL10 / RFU, UHRF1BP1L / Fold change vs veh, UHRF1BP1L / RFU, BET1 / Fold change vs veh, BET1 / RFU, CNOT2 / Fold change vs veh, CNOT2 / RFU, ZNF268 / Fold change vs veh, ZNF268 / Fold change vs veh, ZNF507 / RFU, DGCR2 / Fold change vs veh, DGCR2 / RFU, WDSUB1 / Fold change vs veh, WDSUB1 / Fold change vs veh, HSP90B1 /// MIR3652 / RFU, ADSS / Fold change vs veh, ADSS / RFU, GK / Fold change vs veh, GK / RFU, ZNF148 / Fold change vs veh, ZNF148 / RFU, TAF9 / Fold change vs veh, TAF9 / RFU, SLC1A5 / Fold change vs veh, SLC1A5 / RFU, SLMO2 / Fold change vs veh, SLMO2 / RFU, ABCC4 / Fold change vs veh, ABCC4 / RFU, LOC101060439 /// RAP1B / Fold change vs veh, LOC101060439 /// RAP1B / RFU, RFX7 / Fold change vs veh, RFX7 / RFU, GTPBP10 / Fold change vs veh, GTPBP10 / RFU, CNEP1R1 / Fold change vs veh, CNEP1R1 / RFU, BIVM-ERCC5 /// ERCC5 / Fold change vs veh, BIVM-ERCC5 /// ERCC5 / RFU, ILF3 / Fold change vs veh, ILF3 / RFU 11762660_at / Fold change /veh 11762660_at / RFU VCAN (11757783_s_at) / Fold change /veh VCAN (11757783_s_at) / RFU DDX43 (11728927_at) / Fold change /veh DDX43 (11728927_at) / RFU KRT8 (11758188_x_at) / Fold change /veh KRT8 (11758188_x_at) / RFU NKD1 (11759106_at) / Fold change /veh NKD1 (11759106_at) / RFU SRD5A1 (11742802_a_at) / Fold change /veh SRD5A1 (11742802_a_at) / RFU TPSAB1 /// TPSB2 (11721975_s_at) / Fold change /veh TPSAB1 /// TPSB2 (11721975_s_at) / RFU GSTM3 (11746129_a_at) / Fold change /veh GSTM3 (11746129_a_at) / RFU IL23R (11737362_x_at) / Fold change /veh IL23R (11737362_x_at) / RFU TMEM51 (11727254_a_at) / Fold change /veh TMEM51 (11727254_a_at) / RFU PIWIL2 (11732686_x_at) / Fold change /veh PIWIL2 (11732686_x_at) / RFU ORM1 (11744905_x_at) / Fold change /veh ORM1 (11744905_x_at) / RFU CCDC152 (11743942_at) / Fold change /veh CCDC152 (11743942_at) / RFU ECM1 (11717891_a_at) / Fold change /veh ECM1 (11717891_a_at) / RFU IL23R (11748794_a_at) / Fold change /veh IL23R (11748794_a_at) / RFU TNFAIP8L3 (11732012_x_at) / Fold change /veh TNFAIP8L3 (11732012_x_at) / RFU MBOAT4 (11741988_at) / Fold change /veh MBOAT4 (11741988_at) / RFU 11764193_at / Fold change /veh 11764193_at / RFU TMEM53 (11763286_at) / Fold change /veh TMEM53 (11763286_at) / RFU MAGEB2 (11727129_at) / Fold change /veh MAGEB2 (11727129_at) / RFU TMEM200A (11744735_a_at) / Fold change /veh TMEM200A (11744735_a_at) / RFU CCDC152 (11751479_a_at) / Fold change /veh CCDC152 (11751479_a_at) / RFU FAM211A (11726209_a_at) / Fold change /veh FAM211A (11726209_a_at) / RFU RGS16 (11746705_a_at) / Fold change /veh RGS16 (11746705_a_at) / RFU VCAN (11755009_s_at) / Fold change /veh VCAN (11755009_s_at) / RFU RHOB (11743442_s_at) / Fold change /veh RHOB (11743442_s_at) / RFU RGS16 (11720943_a_at) / Fold change /veh RGS16 (11720943_a_at) / RFU RGS16 (11720944_at) / Fold change /veh RGS16 (11720944_at) / RFU, VPS4B / Fold change vs veh, VPS4B / RFU, CREB1 / Fold change vs veh, CREB1 / RFU, DNAJC13 / Fold change vs veh, DNAJC13 / RFU, GNAQ / Fold change vs veh, GNAQ / RFU, CDK5R1 / Fold change vs veh, CDK5R1 / RFU, ZRANB3 / Fold change vs veh, ZRANB3 / RFU, CUL4A / Fold change vs veh, CUL4A / RFU, CCNY / Fold change vs veh, CCNY / RFU, UFL1 / Fold change vs veh, UFL1 / RFU, COG3 / Fold change vs veh, COG3 / RFU, DIAPH2 / Fold change vs veh, DIAPH2 / RFU, SKA2 / Fold change vs veh, SKA2 / RFU, AFF3 / Fold change vs veh, AFF3 / RFU, LMF1 / Fold change vs veh, LMF1 / RFU, IPO11 / Fold change vs veh, IPO11 / RFU, DFFB / Fold change vs veh, DFFB / RFU, FOXP1 / Fold change vs veh, FOXP1 / RFU, CARD8 / Fold change vs veh, CARD8 / RFU, STRN3 / Fold change vs veh, STRN3 / RFU, ADK / Fold change vs veh, ADK / RFU, RASSF2 / Fold change vs veh, RASSF2 / RFU, WIPF1 / Fold change vs veh, WIPF1 / RFU, LARP1B / Fold change vs veh, LARP1B / RFU, RASA1 / Fold change vs veh, RASA1 / RFU, RB1 / Fold change vs veh, RB1 / RFU, PPFIA1 / Fold change vs veh, PPFIA1 / RFU, MAT2A / Fold change vs veh, MAT2A / RFU, CCT5 / Fold change vs veh, CCT5 / RFU, WDR92 / Fold change vs veh, WDR92 / RFU, CUX1 / Fold change vs veh, CUX1 / RFU, TTC7A / Fold change vs veh, TTC7A / RFU, TMEM135 / Fold change vs veh, TMEM135 / RFU, DEPTOR / Fold change vs veh, DEPTOR / RFU, CPM / Fold change vs veh, CPM / RFU, DNAJB6 / Fold change vs veh, DNAJB6 / RFU, CACNA2D3 / Fold change vs veh, CACNA2D3 / RFU, DTX4 / Fold change vs veh, DTX4 / RFU, TFCP2 / Fold change vs veh, TFCP2 / RFU, GMCL1 /// GMCL1P1 / Fold change vs veh, GMCL1 /// GMCL1P1 / RFU, AEBP2 / Fold change vs veh, AEBP2 / RFU, SNHG1 /// SNORD22 /// SNORD25 /// SNORD26 /// SNORD27 /// SNORD28 /// SNORD29 /// SNORD31 / Fold change vs veh, SNHG1 /// SNORD22 /// SNORD25 /// SNORD26 /// SNORD27 /// SNORD28 /// SNORD29 /// SNORD31 / Fold change (Aza/veh), C12orf56 (ProbeSet 11735607_a_at) / Fold change (ACY-1035/veh), C12orf56 (ProbeSet 11735607_a_at) / Fold change (Aza/veh), FGFR1OP (ProbeSet 11751329_s_at) / Fold change (ACY-1035/veh), FGFR1OP (ProbeSet 11751329_s_at) / Fold change (Aza/veh), VPS36 (ProbeSet 11739960_a_at) / Fold change (ACY-1035/veh), VPS36 (ProbeSet 11739960_a_at) / RFU SYPL1 (11715823_x_at) / Fold change /veh SYPL1 (11715823_x_at) / RFU IGFBP7 (11715501_s_at) / Fold change /veh IGFBP7 (11715501_s_at) / RFU REEP3 (11722064_at) / Fold change /veh REEP3 (11722064_at) / RFU IGLL1 (11728026_x_at) / Fold change /veh IGLL1 (11728026_x_at): dose or concentration left out as unconfirmed
Settings: ProbeSet 11740781_a_at; LIST B

Nc1ncn([C@@H]2O[C@H](CO)[C@@H](O)[C@H]2O)c(=O)n1 [azacitidine]
RFU, ILF3: 260.31 RFU
